Assay results as given in ChEMBL document CHEMBL1201862, “PubChem BioAssay data set” (2004).
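Method: 48-hour compound exposure of cells in 96-well plates, five concentrations, linear interpolation of endpoints. GI50 marks 50% less growth.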 Active and inactive are the calls of the source. Rule as the data show it: active = GI50 up to about 1.1 µM and inactive = higher.

Key:
Assay in all cases: NCI tumour cell line growth inhibition, 48 h
[1] = tested on: 786-0
[2] = tested on: A549
[3] = tested on: BT-549
[4] = tested on: CAKI-1
[5] = tested on: CCRF-CEM
[6] = tested on: COLO 205
[7] = tested on: HCT-116
[8] = tested on: HCT-15
[9] = tested on: HOP-62
[10] = tested on: HT-29
[11] = tested on: Hs-578T
[12] = tested on: IGROV-1
[13] = tested on: K562
[14] = tested on: KM12
[15] = tested on: M14
[16] = tested on: MDA-MB-435
[17] = tested on: MDA-N
[18] = tested on: MOLT-4
[19] = tested on: NCI-H226
[20] = tested on: NCI-H23
[21] = tested on: NCI-H460
[22] = tested on: NCI/ADR-RES
[23] = tested on: OVCAR-4
[24] = tested on: OVCAR-8
[25] = tested on: PC-3
[26] = tested on: RXF 393
[27] = tested on: SK-MEL-28
[28] = tested on: SK-MEL-2
[29] = tested on: SK-MEL-5
[30] = tested on: SK-OV-3
[31] = tested on: SNB-19
[32] = tested on: SNB-75
[33] = tested on: SW-620
[34] = tested on: T47D
[35] = tested on: TK-10
[36] = tested on: U-251
[37] = tested on: UACC-257
[38] = tested on: UACC-62
[39] = tested on: UO-31
[40] = tested on: A498
[41] = tested on: ACHN
[42] = tested on: DU-145
[43] = tested on: EKVX
[44] = tested on: HL-60
[45] = tested on: HOP-92
[46] = tested on: LOX IMVI
[47] = tested on: MCF7
[48] = tested on: MDA-MB-231
[49] = tested on: Malme-3M
[50] = tested on: NCI-H522
[51] = tested on: OVCAR-3
[52] = tested on: OVCAR-5
[53] = tested on: RPMI-8226
[54] = tested on: SF-268
[55] = tested on: SF-295
[56] = tested on: SF-539
[57] = tested on: SN12C
[58] = tested on: SR
[59] = tested on: HCC 2998

COc1cc([C@@H]2c3cc4c(cc3[C@@H](NCCNCCO)[C@H]3COC(=O)[C@H]23)OCO4)cc(OC)c1O
GI50 [1]: 1.09 µM (active)
GI50 [2]: 0.785 µM (active)
GI50 [3]: 1.92 µM (inactive)
GI50 [4]: 3.78 µM (inactive)
GI50 [5]: 0.0432 µM (active)
GI50 [6]: 2.38 µM (inactive)
GI50 [7]: 2.4 µM (inactive)
GI50 [8]: 29.5 µM
GI50 [9]: 1.5 µM (inactive)
GI50 [10]: 2.86 µM (inactive)
GI50 [11]: 1.89 µM (inactive)
GI50 [12]: 1.05 µM (active)
GI50 [13]: 1.71 µM (inactive)
GI50 [14]: 2.55 µM (inactive)
GI50 [15]: 3.79 µM (inactive)
GI50 [16]: 6.22 µM (inactive)
GI50 [17]: 4.35 µM (inactive)
GI50 [18]: 0.016 µM (active)
GI50 [19]: 1.12 µM (inactive)
GI50 [20]: 1.24 µM (inactive)
GI50 [21]: 0.0525 µM (active)
GI50 [22]: > 100 µM (inactive)
GI50 [23]: 18.7 µM (inactive)
GI50 [24]: 2.09 µM (inactive)
GI50 [25]: 2.67 µM (inactive)
GI50 [26]: 1.53 µM (inactive)
GI50 [27]: 2.14 µM (inactive)
GI50 [28]: 2.15 µM (inactive)
GI50 [29]: 1.15 µM (inactive)
GI50 [30]: 1.78 µM (inactive)
GI50 [31]: 0.857 µM (active)
GI50 [32]: 1.1 µM (active)
GI50 [33]: 2.44 µM (inactive)
GI50 [34]: 0.442 µM (active)
GI50 [35]: 6.59 µM (inactive)
GI50 [36]: 0.501 µM (active)
GI50 [37]: 7.85 µM (inactive)
GI50 [38]: 0.644 µM (active)
GI50 [39]: 11.6 µM (inactive)

OC[C@H](O)[C@@H](OCc1ccccc1)[C@H](NCc1ccccc1)c1cccs1
GI50 [1]: > 100 µM (inactive)
GI50 [40]: > 100 µM (inactive)
GI50 [2]: > 100 µM (inactive)
GI50 [41]: > 100 µM (inactive)
GI50 [3]: > 100 µM (inactive)
GI50 [4]: > 100 µM (inactive)
GI50 [5]: > 100 µM (inactive)
GI50 [6]: > 100 µM (inactive)
GI50 [42]: > 100 µM (inactive)
GI50 [43]: > 100 µM (inactive)
GI50 [7]: 99.5 µM (inactive)
GI50 [8]: > 100 µM
GI50 [44]: > 100 µM (inactive)
GI50 [9]: > 100 µM (inactive)
GI50 [45]: > 100 µM (inactive)
GI50 [10]: 60 µM (inactive)
GI50 [12]: 75.5 µM (inactive)
GI50 [13]: > 100 µM (inactive)
GI50 [14]: > 100 µM (inactive)
GI50 [46]: > 100 µM (inactive)
GI50 [15]: > 100 µM (inactive)
GI50 [47]: > 100 µM (inactive)
GI50 [48]: > 100 µM (inactive)
GI50 [16]: > 100 µM (inactive)
GI50 [17]: > 100 µM (inactive)
GI50 [18]: > 100 µM (inactive)
GI50 [49]: > 100 µM (inactive)
GI50 [19]: > 100 µM (inactive)
GI50 [20]: 55.7 µM (inactive)
GI50 [21]: 85.7 µM (inactive)
GI50 [50]: > 100 µM (inactive)
GI50 [22]: > 100 µM (inactive)
GI50 [51]: > 100 µM (inactive)
GI50 [23]: > 100 µM (inactive)
GI50 [52]: > 100 µM (inactive)
GI50 [24]: > 100 µM (inactive)
GI50 [25]: 98.4 µM (inactive)
GI50 [53]: 92 µM (inactive)
GI50 [54]: 4.11 µM (inactive)
GI50 [55]: > 100 µM (inactive)
GI50 [56]: > 100 µM (inactive)
GI50 [27]: > 100 µM (inactive)
GI50 [28]: > 100 µM (inactive)
GI50 [29]: > 100 µM (inactive)
GI50 [30]: > 100 µM (inactive)
GI50 [57]: > 100 µM (inactive)
GI50 [31]: 21.4 µM (inactive)
GI50 [32]: 65.3 µM (inactive)
GI50 [58]: > 100 µM (inactive)
GI50 [33]: > 100 µM (inactive)
GI50 [34]: > 100 µM (inactive)
GI50 [35]: > 100 µM (inactive)
GI50 [36]: > 100 µM (inactive)
GI50 [37]: > 100 µM (inactive)
GI50 [38]: > 100 µM (inactive)
GI50 [39]: 15.5 µM (inactive)

COc1cc(CC2CCc3nc(N)nc(N)c3C2)cc(OC)c1OC (stereo not drawn)
GI50 [1]: 0.0536 µM (active)
GI50 [40]: 20.7 µM (inactive)
GI50 [2]: 0.0927 µM (active)
GI50 [41]: 0.163 µM (active)
GI50 [3]: 9.55 µM (inactive)
GI50 [6]: 1.6 µM (inactive)
GI50 [42]: 1.79 µM (inactive)
GI50 [43]: 0.701 µM (active)
GI50 [59]: 0.621 µM (active)
GI50 [7]: 0.0457 µM (active)
GI50 [8]: 0.0925 µM
GI50 [44]: 0.1 µM (active)
GI50 [9]: 2.05 µM (inactive)
GI50 [45]: 26.5 µM (inactive)
GI50 [10]: > 34.8 µM (inactive)
GI50 [11]: > 60.5 µM (inactive)
GI50 [12]: 0.131 µM (active)
GI50 [13]: 5.3 µM (inactive)
GI50 [14]: 1.18 µM (inactive)
GI50 [46]: 0.0798 µM (active)
GI50 [15]: 0.195 µM (active)
GI50 [47]: 0.527 µM (active)
GI50 [16]: 4.24 µM (inactive)
GI50 [18]: 1.01 µM (active)
GI50 [49]: 0.851 µM (active)
GI50 [19]: > 24.3 µM (inactive)
GI50 [20]: 0.698 µM (active)
GI50 [21]: 0.0571 µM (active)
GI50 [50]: 0.505 µM (active)
GI50 [51]: 8.85 µM (inactive)
GI50 [23]: > 45.6 µM (inactive)
GI50 [52]: 1.36 µM (inactive)
GI50 [24]: > 32.7 µM (inactive)
GI50 [25]: 0.13 µM (active)
GI50 [53]: 5.83 µM (inactive)
GI50 [26]: 0.0422 µM (active)
GI50 [54]: 0.174 µM (active)
GI50 [55]: 0.21 µM (active)
GI50 [56]: 0.966 µM (active)
GI50 [27]: > 36.5 µM (inactive)
GI50 [28]: > 38.1 µM (inactive)
GI50 [29]: 0.0834 µM (active)
GI50 [30]: 27.6 µM (inactive)
GI50 [57]: 31.1 µM (inactive)
GI50 [31]: > 22.9 µM (inactive)
GI50 [32]: 1.55 µM (inactive)
GI50 [58]: 0.236 µM (active)
GI50 [33]: 0.914 µM (active)
GI50 [34]: 21.6 µM (inactive)
GI50 [35]: > 45.7 µM (inactive)
GI50 [36]: > 35.2 µM (inactive)
GI50 [37]: 24.8 µM (inactive)
GI50 [38]: 0.145 µM (active)
